{
  "source": "PubChem BioAssay AID270",
  "about": "(DTP/NCI, 2004)",
  "test_system": "BDF1 mice, s.c. Lewis lung carcinoma, T/C %",
  "test": "NCI In Vivo Anticancer Drug Screen. Data for tumor model Lewis Lung Carcinoma (subcutaneous) in B6D2F1 (BDF1) mice",
  "procedure,_shortened": "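Transplanted tumors grown in mice; compound vs vehicle dosing; endpoint survival or tumor size; ratio T/C.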",
  "key": {"[1]": {"conditions": "endpoint: median survival time, dose: 12.5 mg/kg/injection, schedule: Q01DX009 (ip), vehicle: saline, higher = longer survival"}, "[2]": {"conditions": "endpoint: median survival time, dose: 50.0 mg/kg/injection, schedule: Q01DX009 (ip), vehicle: saline, higher = longer survival"}},
  "note": "Several values for one entry are separate records, joined by “and”; a condition that tells them apart may be missing. Identical values can stand only once. Records with an inconclusive call do not appear.",
  "data": [
    {"smiles": "NC(=O)NO", "values": [
      {"measurement": "T/C", "setting": "endpoint: mean tumor weight (est.), dose: 100.0 mg/kg/injection, schedule: Q01DX009 (ip), vehicle: water, higher = larger tumour", "value": "66 % of control"},
      {"measurement": "T/C", "setting": "endpoint: mean tumor weight (est.), dose: 200.0 mg/kg/injection, schedule: Q01DX009 (ip), vehicle: water, higher = larger tumour", "value": "28 % of control"},
      {"measurement": "T/C", "setting": "endpoint: mean tumor weight (est.), dose: 400.0 mg/kg/injection, schedule: Q01DX009 (ip), vehicle: water, higher = larger tumour", "value": "33 % of control"},
      {"measurement": "T/C", "setting": "endpoint: mean tumor weight, dose: 25.0 mg/kg/injection, schedule: Q01DX011 (ip), vehicle: saline, higher = larger tumour", "value": "58 % of control"},
      {"measurement": "T/C", "setting": "endpoint: mean tumor weight, dose: 50.0 mg/kg/injection, schedule: Q01DX011 (ip), vehicle: saline, higher = larger tumour", "value": "90 % of control"},
      {"measurement": "T/C", "setting": "endpoint: mean tumor weight, dose: 100.0 mg/kg/injection, schedule: Q01DX011 (ip), vehicle: saline, higher = larger tumour", "value": "89 % of control"},
      {"measurement": "T/C", "setting": "endpoint: mean tumor weight, dose: 200.0 mg/kg/injection, schedule: Q01DX011 (ip), vehicle: saline, higher = larger tumour", "value": "31 % of control"},
      {"measurement": "T/C", "setting": "endpoint: median survival time, dose: 2.5 mg/kg/injection, schedule: Q08HX024 (ip), vehicle: saline, higher = longer survival", "value": "92 % of control"},
      {"measurement": "T/C", "setting": "endpoint: median survival time, dose: 10.0 mg/kg/injection, schedule: Q08HX024 (ip), vehicle: Klucel (hydroxypropylcellulose) (HPC), higher = longer survival", "value": "181 % of control"},
      {"measurement": "T/C", "setting": "endpoint: median survival time, dose: 20.0 mg/kg/injection, schedule: Q08HX024 (ip), vehicle: Klucel (hydroxypropylcellulose) (HPC), higher = longer survival", "value": "181 % of control"},
      {"measurement": "T/C", "setting": "endpoint: median survival time, dose: 40.0 mg/kg/injection, schedule: Q08HX024 (ip), vehicle: Klucel (hydroxypropylcellulose) (HPC), higher = longer survival", "value": "95 % of control"},
      {"measurement": "T/C", "setting": "endpoint: median survival time, dose: 40.0 mg/kg/injection, schedule: Q08HX024 (ip), vehicle: saline, higher = longer survival", "value": "90 % of control"},
      {"measurement": "T/C", "setting": "endpoint: median survival time, dose: 97.0 mg/kg/injection, schedule: Q01DX009 (ip), vehicle: saline, higher = longer survival", "value": "119 % of control"},
      {"measurement": "T/C", "setting": "endpoint: median survival time, dose: 100.0 mg/kg/injection, schedule: Q01DX009 (ip), vehicle: water, higher = longer survival", "value": "94 % of control"},
      {"measurement": "T/C", "setting": "endpoint: median survival time, dose: 200.0 mg/kg/injection, schedule: Q01DX009 (ip), vehicle: water, higher = longer survival", "value": "100 % of control"},
      {"measurement": "T/C", "setting": "endpoint: median survival time, dose: 1250.0 mg/kg/injection, schedule: Q01DX009 (ip), vehicle: saline, higher = longer survival", "value": "56 % of control"}
    ]},
    {"smiles": "NCCCOc1ccc([N+](=O)[O-])cc1Cl", "values": [
      {"measurement": "T/C", "setting": "[1]", "value": "87 % of control"},
      {"measurement": "T/C", "setting": "[2]", "value": "100 % of control and 120 % of control and 121 % of control"},
      {"measurement": "T/C", "setting": "endpoint: median survival time, dose: 100.0 mg/kg/injection, schedule: Q01DX009 (ip), vehicle: saline, higher = longer survival", "value": "87 % of control and 101 % of control and 112 % of control"}
    ]},
    {"smiles": "COc1ccc(CC2C(=O)NC(C)C(=O)N(C)C3Cc4ccc(cc4)Oc4cc(ccc4O)CC(C(=O)NC(C)C(=O)NC(C)C(=O)N2C)N(C)C3=O)cc1", "note": "(stereo not given)", "values": [
      {"measurement": "T/C", "setting": "endpoint: median survival time, dose: 1.0 mg/kg/injection, schedule: Q01DX009 (ip), vehicle: saline, higher = longer survival", "value": "103 % of control"},
      {"measurement": "T/C", "setting": "endpoint: median survival time, dose: 2.0 mg/kg/injection, schedule: Q01DX009 (ip), vehicle: saline, higher = longer survival", "value": "111 % of control"}
    ]},
    {"smiles": "COc1c(OC)c(O)c2c(=O)cc(-c3ccc(O)cc3)oc2c1OC", "values": [
      {"measurement": "T/C", "setting": "endpoint: mean tumor weight, dose: 25.0 mg/kg/injection, schedule: Q01DX011 (sc), vehicle: steriod suspending solution, higher = larger tumour", "value": "100 % of control"},
      {"measurement": "T/C", "setting": "endpoint: mean tumor weight, dose: 50.0 mg/kg/injection, schedule: Q01DX011 (sc), vehicle: steriod suspending solution, higher = larger tumour", "value": "81 % of control"},
      {"measurement": "T/C", "setting": "endpoint: mean tumor weight, dose: 100.0 mg/kg/injection, schedule: Q01DX011 (sc), vehicle: steriod suspending solution, higher = larger tumour", "value": "85 % of control"},
      {"measurement": "T/C", "setting": "endpoint: mean tumor weight, dose: 200.0 mg/kg/injection, schedule: Q01DX011 (sc), vehicle: steriod suspending solution, higher = larger tumour", "value": "68 % of control"}
    ]},
    {"smiles": "Nc1nc(SCc2ccccc2)c2ncn(C3CCCC3)c2n1", "values": [
      {"measurement": "T/C", "setting": "endpoint: mean tumor weight, dose: 75.0 mg/kg/injection, schedule: Q01DX011 (ip), vehicle: other, higher = larger tumour", "value": "115 % of control"},
      {"measurement": "T/C", "setting": "endpoint: mean tumor weight, dose: 150.0 mg/kg/injection, schedule: Q01DX011 (ip), vehicle: other, higher = larger tumour", "value": "81 % of control"},
      {"measurement": "T/C", "setting": "endpoint: mean tumor weight, dose: 300.0 mg/kg/injection, schedule: Q01DX011 (ip), vehicle: other, higher = larger tumour", "value": "54 % of control"},
      {"measurement": "T/C", "setting": "endpoint: mean tumor weight, dose: 600.0 mg/kg/injection, schedule: Q01DX011 (ip), vehicle: other, higher = larger tumour", "value": "47 % of control and 65 % of control"},
      {"measurement": "T/C", "setting": "endpoint: mean tumor weight, dose: 750.0 mg/kg/injection, schedule: Q01DX011 (ip), vehicle: other, higher = larger tumour", "value": "52 % of control"}
    ]},
    {"smiles": "CC1=CC(=O)N(NC(N)=O)C1=O", "values": [
      {"measurement": "T/C", "setting": "[1]", "value": "107 % of control"},
      {"measurement": "T/C", "setting": "endpoint: median survival time, dose: 25.0 mg/kg/injection, schedule: Q01DX009 (ip), vehicle: saline, higher = longer survival", "value": "104 % of control"},
      {"measurement": "T/C", "setting": "[2]", "value": "90 % of control"}
    ]},
    {"smiles": "O=C1C=Cc2ccc(O)cc2C1=O", "values": [
      {"measurement": "T/C", "setting": "endpoint: mean tumor weight, dose: 0.57 mg/kg/injection, schedule: Q01DX011 (ip), vehicle: saline, higher = larger tumour", "value": "104 % of control"},
      {"measurement": "T/C", "setting": "endpoint: mean tumor weight, dose: 0.86 mg/kg/injection, schedule: Q01DX011 (ip), vehicle: saline, higher = larger tumour", "value": "81 % of control"},
      {"measurement": "T/C", "setting": "endpoint: mean tumor weight, dose: 1.3 mg/kg/injection, schedule: Q01DX011 (ip), vehicle: saline, higher = larger tumour", "value": "59 % of control"},
      {"measurement": "T/C", "setting": "endpoint: mean tumor weight, dose: 2.0 mg/kg/injection, schedule: Q01DX011 (ip), vehicle: saline, higher = larger tumour", "value": "60 % of control"}
    ]},
    {"smiles": "NC(=NCc1ccccc1)c1ccc(N=C(N)c2ccc(C(N)=Nc3ccc(C(N)=NCc4ccccc4)cc3)cc2)cc1", "values": [
      {"measurement": "T/C", "setting": "endpoint: median survival time, dose: 2.5 mg/kg/injection, schedule: Q01DX009 (ip), vehicle: saline, higher = longer survival", "value": "113 % of control"},
      {"measurement": "T/C", "setting": "endpoint: median survival time, dose: 5.0 mg/kg/injection, schedule: Q01DX009 (ip), vehicle: saline, higher = longer survival", "value": "107 % of control"},
      {"measurement": "T/C", "setting": "endpoint: median survival time, dose: 10.0 mg/kg/injection, schedule: Q01DX009 (ip), vehicle: saline, higher = longer survival", "value": "111 % of control"}
    ]}
  ]
}
